# How the values were obtained:
# Assay type in all cases: functional, cell-based
# MCF7 = experiment: In vitro inhibition of estrogen receptor positive human breast cancer MCF-7 cell proliferation
# Hs-578T = experiment: In vitro inhibition of estrogen receptor negative human breast cancer Hs 578.T cell proliferation
# ZR-75-1 = experiment: In vitro inhibition of estrogen receptor positive human breast cancer ZR-75-1 cell proliferation
# MDA-MB-231 = experiment: In vitro inhibition of estrogen receptor negative human breast cancer MDA-MB-231 cell proliferation
Substance,IC50 (MCF7) [µM],IC50 (MDA-MB-231) [µM],IC50 (Hs-578T) [µM],IC50 (ZR-75-1) [µM]
Cisplatin complex [listing 1 of 8 here],31.5,18.5,28,16.4
CISPLATIN,16.7,12.7,9.1,9.3
Cisplatin complex [listing 7 of 8 here],13.4,9.2,12.4,9.3
Cisplatin complex [listing 8 of 8 here],> 40,> 40,> 40,31.5

# Further lines, with some results ahead:
IC50 (MCF7) [µM],IC50 (MDA-MB-231) [µM],Substance,IC50 (Hs-578T) [µM],IC50 (ZR-75-1) [µM]
20,,Cisplatin complex [listing 2 of 8 here],22.9,15.8
4.3,4.8,Cisplatin complex [listing 3 of 8 here],4.1,5
,12.7,Cisplatin complex [listing 4 of 8 here],17.3,14
5.8,8.6,Cisplatin complex [listing 5 of 8 here],2.7,4.2
4,4.7,Cisplatin complex [listing 6 of 8 here],3.5,2.5
